Assay results: PubChem BioAssay AID252 (DTP/NCI, 2004)
Where “and” joins values, the source holds several entries; their conditions need not be identical. Equal entries are not always repeated. Inconclusive results and toxic doses are left out. How the source made its calls: active means survival T/C of 150% or more; inactive means T/C below 125% in these data.

Test system: BDF1 mice, intracerebral L1210 leukemia, survival T/C
Test: NCI In Vivo Anticancer Drug Screen. Data for tumor model L1210 Leukemia (intracerebral) in B6D2F1 (BDF1) mice
Conditions: higher = longer survival
Description: The antitumor activity of compounds was measured in mice bearing transplantable tumors. Survival or tumor size were measured and the results are expressed as the measurement made in the treated group (T) divided by the measurement made in the vehicle treated control group (C). The tumor model used in this assay is L1210 Leukemia (intracerebral) in B6D2F1 (BDF1) mice

[1] = endpoint: median survival time, dose: 200.0 mg/kg/injection, schedule: Q01DX009 (ip), vehicle: saline
[2] = endpoint: mean survival time, dose: 24.0 mg/kg/injection, schedule: Q01DX001 (ip), vehicle: other

Measured: T/C

Cc1ncc(CNC(=O)N(CCCl)N=O)c(N)n1
inactive: endpoint: mean survival time, dose: 6.25 mg/kg/injection, schedule: Q01DX001 (ip), vehicle: saline 104 % of control | endpoint: mean survival time, dose: 100.0 mg/kg/injection, schedule: Q01DX001 (ip), vehicle: saline 104 % of control
active: endpoint: mean survival time, dose: 6.25 mg/kg/injection, schedule: Q01DX009 (ip), vehicle: saline 158 % of control | endpoint: mean survival time, dose: 12.5 mg/kg/injection, schedule: Q01DX009 (ip), vehicle: saline 160 % of control | endpoint: mean survival time, dose: 25.0 mg/kg/injection, schedule: Q01DX001 (ip), vehicle: saline 153 % of control | endpoint: mean survival time, dose: 50.0 mg/kg/injection, schedule: Q01DX001 (ip), vehicle: saline 153 % of control

N=c1nc2n(cc1F)[C@@H]1O[C@H](CO)[C@@H](O)[C@@H]1O2
active: endpoint: median survival time, dose: 100.0 mg/kg/injection, schedule: Q01DX009 (ip), vehicle: saline 186 % of control | [1] 204 % of control | endpoint: median survival time, dose: 400.0 mg/kg/injection, schedule: Q01DX009 (ip), vehicle: saline 344 % of control

CC(=O)OC1CCC(NC(=O)N(CCCl)N=O)CC1 (stereo not drawn)
active: [2] 364 % of control | endpoint: mean survival time, dose: 36.0 mg/kg/injection, schedule: Q01DX001 (ip), vehicle: other 500 % of control | endpoint: mean survival time, dose: 54.0 mg/kg/injection, schedule: Q01DX001 (ip), vehicle: other 423 % of control

CC1CCC(NC(=O)N(CCCl)N=O)CC1 (stereo not drawn)
inactive: endpoint: mean survival time, dose: 2.0 mg/kg/injection, schedule: Q01DX001 (ip), vehicle: clinical formulation 100 % of control | endpoint: mean survival time, dose: 2.0 mg/kg/injection, schedule: Q01DX009 (ip), vehicle: other 117 % of control | endpoint: mean survival time, dose: 3.13 mg/kg/injection, schedule: Q01DX009 (ip), vehicle: Klucel (hydroxypropylcellulose) (HPC) 112 % of control | endpoint: mean survival time, dose: 4.0 mg/kg/injection, schedule: Q01DX001 (ip), vehicle: clinical formulation 105 % of control | endpoint: mean survival time, dose: 4.0 mg/kg/injection, schedule: Q01DX001 (ip), vehicle: saline 103 % of control | endpoint: mean survival time, dose: 4.3 mg/kg/injection, schedule: Q01DX001 (ip), vehicle: other 104 % of control and 107 % of control | endpoint: mean survival time, dose: 5.0 mg/kg/injection, schedule: Q01DX001 (ip), vehicle: other 115 % of control | endpoint: mean survival time, dose: 5.4 mg/kg/injection, schedule: Q01DX001 (oral), vehicle: other 110 % of control | endpoint: mean survival time, dose: 8.0 mg/kg/injection, schedule: Q01DX001 (ip), vehicle: Klucel (hydroxypropylcellulose) (HPC) 112 % of control | endpoint: mean survival time, dose: 8.0 mg/kg/injection, schedule: Q01DX001 (ip), vehicle: clinical formulation 115 % of control | endpoint: mean survival time, dose: 8.0 mg/kg/injection, schedule: Q01DX001 (ip), vehicle: saline 118 % of control | endpoint: mean survival time, dose: 9.0 mg/kg/injection, schedule: Q01DX001 (ip), vehicle: other 110 % of control and 112 % of control | endpoint: mean survival time, dose: 16.0 mg/kg/injection, schedule: Q01DX009 (ip), vehicle: other 113 % of control | endpoint: mean survival time, dose: 20.0 mg/kg/injection, schedule: Q01DX009 (ip), vehicle: saline 98 % of control | endpoint: mean survival time, dose: 25.0 mg/kg/injection, schedule: Q01DX009 (ip), vehicle: Klucel (hydroxypropylcellulose) (HPC) 109 % of control | endpoint: mean survival time, dose: 32.0 mg/kg/injection, schedule: Q01DX001 (oral), vehicle: clinical formulation 102 % of control | endpoint: mean survival time, dose: 90.0 mg/kg/injection, schedule: Q01DX001 (oral), vehicle: other 91 % of control | endpoint: mean survival time, dose: 91.0 mg/kg/injection, schedule: Q01DX001 (oral), vehicle: other 114 % of control | endpoint: mean survival time, dose: 128.0 mg/kg/injection, schedule: Q01DX001 (ip), vehicle: Klucel (hydroxypropylcellulose) (HPC) 109 % of control | endpoint: mean survival time, dose: 128.0 mg/kg/injection, schedule: Q01DX001 (ip), vehicle: clinical formulation 103 % of control | endpoint: mean survival time, dose: 128.0 mg/kg/injection, schedule: Q01DX001 (ip), vehicle: saline 103 % of control | endpoint: mean survival time, dose: 256.0 mg/kg/injection, schedule: Q01DX001 (ip), vehicle: Klucel (hydroxypropylcellulose) (HPC) 111 % of control | endpoint: mean survival time, dose: 256.0 mg/kg/injection, schedule: Q01DX001 (oral), vehicle: clinical formulation 112 % of control | endpoint: median survival time, dose: 2.0 mg/kg/injection, schedule: Q01DX001 (ip), vehicle: clinical formulation 106 % of control | endpoint: median survival time, dose: 2.0 mg/kg/injection, schedule: Q01DX001 (ip), vehicle: saline 106 % of control | endpoint: median survival time, dose: 4.0 mg/kg/injection, schedule: Q01DX001 (ip), vehicle: clinical formulation 113 % of control | endpoint: median survival time, dose: 4.0 mg/kg/injection, schedule: Q01DX001 (ip), vehicle: saline 115 % of control | endpoint: median survival time, dose: 8.0 mg/kg/injection, schedule: Q01DX001 (ip), vehicle: clinical formulation 122 % of control | endpoint: median survival time, dose: 32.0 mg/kg/injection, schedule: Q01DX001 (oral), vehicle: clinical formulation 108 % of control | endpoint: median survival time, dose: 128.0 mg/kg/injection, schedule: Q01DX001 (ip), vehicle: clinical formulation 110 % of control | endpoint: median survival time, dose: 128.0 mg/kg/injection, schedule: Q01DX001 (ip), vehicle: saline 117 % of control | endpoint: median survival time, dose: 256.0 mg/kg/injection, schedule: Q01DX001 (ip), vehicle: clinical formulation 103 % of control | endpoint: median survival time, dose: 256.0 mg/kg/injection, schedule: Q01DX001 (ip), vehicle: saline 102 % of control | endpoint: median survival time, dose: 256.0 mg/kg/injection, schedule: Q01DX001 (oral), vehicle: clinical formulation 118 % of control | endpoint: median survival time, dose: 512.0 mg/kg/injection, schedule: Q01DX001 (oral), vehicle: clinical formulation 98 % of control | endpoint: median survival time, dose: 1024.0 mg/kg/injection, schedule: Q01DX001 (oral), vehicle: clinical formulation 83 % of control
active: endpoint: mean survival time, dose: 5.0 mg/kg/injection, schedule: Q01DX009 (ip), vehicle: saline 161 % of control | endpoint: mean survival time, dose: 8.0 mg/kg/injection, schedule: Q01DX009 (ip), vehicle: other 183 % of control | endpoint: mean survival time, dose: 10.0 mg/kg/injection, schedule: Q01DX009 (ip), vehicle: saline 151 % of control | endpoint: mean survival time, dose: 12.5 mg/kg/injection, schedule: Q01DX009 (ip), vehicle: Klucel (hydroxypropylcellulose) (HPC) 161 % of control | endpoint: mean survival time, dose: 16.0 mg/kg/injection, schedule: Q01DX001 (ip), vehicle: saline 153 % of control | endpoint: mean survival time, dose: 20.0 mg/kg/injection, schedule: Q01DX001 (ip), vehicle: other 188 % of control | [2] 175 % of control and 185 % of control | endpoint: mean survival time, dose: 30.0 mg/kg/injection, schedule: Q01DX001 (ip), vehicle: other 187 % of control and 198 % of control | endpoint: mean survival time, dose: 32.0 mg/kg/injection, schedule: Q01DX001 (ip), vehicle: clinical formulation 160 % of control | endpoint: mean survival time, dose: 36.0 mg/kg/injection, schedule: Q01DX001 (oral), vehicle: other 238 % of control and 243 % of control and 292 % of control | endpoint: mean survival time, dose: 40.0 mg/kg/injection, schedule: Q01DX001 (ip), vehicle: other 280 % of control | endpoint: mean survival time, dose: 45.0 mg/kg/injection, schedule: Q01DX001 (ip), vehicle: other 225 % of control and 251 % of control | endpoint: mean survival time, dose: 45.0 mg/kg/injection, schedule: Q01DX001 (oral), vehicle: other 306 % of control and 362 % of control | endpoint: mean survival time, dose: 54.0 mg/kg/injection, schedule: Q01DX001 (oral), vehicle: other 189 % of control and 248 % of control and 357 % of control | endpoint: mean survival time, dose: 67.0 mg/kg/injection, schedule: Q01DX001 (ip), vehicle: other 168 % of control | endpoint: mean survival time, dose: 72.0 mg/kg/injection, schedule: Q01DX001 (ip), vehicle: other 209 % of control and 306 % of control | endpoint: median survival time, dose: 16.0 mg/kg/injection, schedule: Q01DX001 (ip), vehicle: saline 178 % of control | endpoint: median survival time, dose: 32.0 mg/kg/injection, schedule: Q01DX001 (ip), vehicle: clinical formulation 175 % of control | endpoint: median survival time, dose: 32.0 mg/kg/injection, schedule: Q01DX001 (ip), vehicle: saline 159 % of control | endpoint: median survival time, dose: 64.0 mg/kg/injection, schedule: Q01DX001 (oral), vehicle: clinical formulation 150 % of control

CCOCCN1CCN(CCCN2c3ccccc3Sc3ccc(C(F)(F)F)cc32)CC1
inactive: endpoint: mean survival time, dose: 0.78 mg/kg/injection, schedule: Q01DX009 (ip), vehicle: water 106 % of control | endpoint: mean survival time, dose: 1.56 mg/kg/injection, schedule: Q01DX009 (ip), vehicle: water 103 % of control | endpoint: mean survival time, dose: 25.0 mg/kg/injection, schedule: Q04DX003 (ip), vehicle: water 106 % of control

O=NN(CCF)C(=O)Nc1ccccc1
inactive: endpoint: mean survival time, dose: 8.0 mg/kg/injection, schedule: Q01DX001 (ip), vehicle: other 120 % of control

COc1cc(NS(C)(=O)=O)ccc1Nc1c2ccccc2nc2c(C)cccc12
inactive: endpoint: mean survival time, dose: 2.5 mg/kg/injection, schedule: Q01DX009 (ip), vehicle: water 116 % of control and 113 % of control | endpoint: mean survival time, dose: 2.5 mg/kg/injection, schedule: Q01DX009 (sc), vehicle: water 112 % of control and 111 % of control | endpoint: mean survival time, dose: 5.0 mg/kg/injection, schedule: Q01DX009 (ip), vehicle: water 112 % of control | endpoint: mean survival time, dose: 5.0 mg/kg/injection, schedule: Q01DX009 (sc), vehicle: water 105 % of control and 104 % of control | endpoint: mean survival time, dose: 10.0 mg/kg/injection, schedule: Q01DX009 (sc), vehicle: water 103 % of control

O=C1C=CN(C2OC(CO)C(O)C2O)C(=O)C1 (stereo not drawn)
active: [1] 150 % of control
